Results: patent publication US9605003B2, “Heterocyclic compounds and uses thereof” (Infinity Pharmaceuticals, Inc., priority 2011, dated 2017)

What was measured:
Balb/c splenic B cells = experiment: B cell activation and proliferation assay (Alamar Blue); assay type: cell-based; conditions: Mus musculus, Less than 100 nanoMolar
Method: The ability of one or more subject compounds to inhibit B cell activitation and proliferation is determined according to standard procedures known in the art. For example, an in vitro cellular proliferation assay is established that measures the metabolic activity of live cells. The assay is performed in a 96 well microtiter plate using Alamar Blue reduction. Balb/c splenic B cells are purified over a Ficoll-Paque™ PLUS gradient followed by magnetic cell separation using a MACS B cell Isolation Kit (Miletenyi). Cells are plated in 90 μl at 50,000 cells/well in B Cell Media (RPMI+10% FBS+Penn/Strep+50 μM bME+5 mM HEPES). A compound provided herein is diluted in B Cell Media and added in a 10 μl volume. Plates are incubated for 30 min at 37° C. and 5% CO2 (0.2% DMSO final concentration). A 50 μl B cell stimulation cocktail is then added containing either 10 μg/ml LPS or 5 μg/ml F(ab′)2 Donkey anti-mouse IgM plus 2 ng/ml recombinant mouse IL4 in B Cell Media. Plates are incubated for 72 hours at 37° C. and 5% CO2. A volume of 15 μL of Alamar Blue reagent is added to each well and plates are incubated for 5 hours at 37° C. and 5% CO2. Alamar Blue fluoresce is read at 560Ex/590Em, and IC50 or EC50 values are calculated using GraphPad Prism 5.

PI3Kα = target: T1, PI3Kα (Homo sapiens, UniProt P42336); experiment: PI3 Kinase HTRF assay, PI3Kα; assay type: biochemical; conditions: Between 1 μM and 10 μM; read-out: PI3K α IC50
T1 construct: purchased Millipore Corporation 14-602-K
From the text: (§1) A PI3-Kinase HTRF® assay kit (cat No. 33-016) purchased from Millipore Corporation was used to screen compounds provided herein. This assay used specific, high affinity binding of the GRP1 pleckstrin homology (PH) domain to PIP3, the product of a Class 1A or 1B PI3 Kinase acting on its physiological substrate PIP2. During the detection phase of the assay, a complex was generated between the GST-tagged PH domain and biotinylated short chain PIP3. The biotinylated PIP3 and the GST-tagged PH domain recruited fluorophores (Streptavidin-Allophycocyanin and Europium-labeled anti-GST respectively) to form the fluorescence resonance energy transfer (FRET) architecture, generating a stable time-resolved FRET signal. The FRET complex was disrupted in a competitive manner by non-biotinylated PIP3, a product formed in the PI3 Kinase assay.
(§2) PI3 Kinase α, β, γ and δ activity was assayed using the PI3 Kinase HTRF® assay kit (catalogue No. 33-016) purchased from Millipore Corporation. Purified recombinant PI3Kα (catalogue No. 14-602-K), PI3Kβ (catalogue No. 14-603-K), PI3Kγ (catalogue No. 14-558-K) and PI3Kδ (catalogue No. 14-604-K) were obtained from Millipore Corporation. Purified recombinant PI3K enzyme was used to catalyze the phosphorylation of phosphatidylinositol 4,5-bisphosphate (PIP2 at 10 μM) to phosphatidylinositol 3,4,5-trisphosphate (PIP3) in the presence of 10 μM ATP. The assay was carried out in 384-well format and detected using a Perkin Elmer EnVision Xcite Multilabel Reader. Emission ratios were converted into percent inhibitions and imported into GraphPad Prism software. The concentration necessary to achieve inhibition of enzyme activity by 50% (IC50) was calculated using concentrations ranging from 20 μM to 0.1 nM (12-point curve). IC50 values were determined using a nonlinear regression model available in GraphPad Prism 5.

PI3Kβ = target: T2, PI3Kβ (Homo sapiens, UniProt P42338); experiment: PI3 Kinase HTRF assay, PI3Kβ; assay type: biochemical; conditions: Between 1 μM and 10 μM; read-out: PI3K β IC50
T2 construct: purchased Millipore Corporation 14-603-K
From the text: as §1, §2

T2 sequence (P42338 whole entry): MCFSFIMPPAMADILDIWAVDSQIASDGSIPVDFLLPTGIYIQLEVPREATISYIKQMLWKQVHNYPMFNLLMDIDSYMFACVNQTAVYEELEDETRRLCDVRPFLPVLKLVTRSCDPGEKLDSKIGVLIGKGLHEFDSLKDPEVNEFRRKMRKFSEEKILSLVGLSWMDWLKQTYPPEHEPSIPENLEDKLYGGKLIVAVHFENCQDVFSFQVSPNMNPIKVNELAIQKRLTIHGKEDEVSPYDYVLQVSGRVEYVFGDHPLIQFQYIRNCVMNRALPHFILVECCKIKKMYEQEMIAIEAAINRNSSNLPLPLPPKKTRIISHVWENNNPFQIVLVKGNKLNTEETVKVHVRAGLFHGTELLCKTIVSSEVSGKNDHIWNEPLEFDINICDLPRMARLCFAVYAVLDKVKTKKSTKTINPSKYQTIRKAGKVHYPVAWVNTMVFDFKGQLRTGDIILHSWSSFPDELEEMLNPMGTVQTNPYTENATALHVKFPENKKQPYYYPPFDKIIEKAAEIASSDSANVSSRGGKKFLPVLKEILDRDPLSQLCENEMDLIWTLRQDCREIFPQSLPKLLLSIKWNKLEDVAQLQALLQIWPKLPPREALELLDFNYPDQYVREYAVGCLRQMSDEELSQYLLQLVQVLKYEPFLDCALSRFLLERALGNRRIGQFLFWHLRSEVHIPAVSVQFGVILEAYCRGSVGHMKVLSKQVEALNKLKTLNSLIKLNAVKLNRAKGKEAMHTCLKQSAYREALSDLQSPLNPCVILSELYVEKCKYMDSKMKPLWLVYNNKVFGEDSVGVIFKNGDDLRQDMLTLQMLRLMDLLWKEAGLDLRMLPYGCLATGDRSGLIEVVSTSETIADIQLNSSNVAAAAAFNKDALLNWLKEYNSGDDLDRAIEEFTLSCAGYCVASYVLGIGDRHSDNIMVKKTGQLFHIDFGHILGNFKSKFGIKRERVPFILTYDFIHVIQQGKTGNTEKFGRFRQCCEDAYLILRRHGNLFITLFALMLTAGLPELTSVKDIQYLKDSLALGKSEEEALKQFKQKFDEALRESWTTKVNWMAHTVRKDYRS
T2 sequence (P27986 2-724 partner limits assumed): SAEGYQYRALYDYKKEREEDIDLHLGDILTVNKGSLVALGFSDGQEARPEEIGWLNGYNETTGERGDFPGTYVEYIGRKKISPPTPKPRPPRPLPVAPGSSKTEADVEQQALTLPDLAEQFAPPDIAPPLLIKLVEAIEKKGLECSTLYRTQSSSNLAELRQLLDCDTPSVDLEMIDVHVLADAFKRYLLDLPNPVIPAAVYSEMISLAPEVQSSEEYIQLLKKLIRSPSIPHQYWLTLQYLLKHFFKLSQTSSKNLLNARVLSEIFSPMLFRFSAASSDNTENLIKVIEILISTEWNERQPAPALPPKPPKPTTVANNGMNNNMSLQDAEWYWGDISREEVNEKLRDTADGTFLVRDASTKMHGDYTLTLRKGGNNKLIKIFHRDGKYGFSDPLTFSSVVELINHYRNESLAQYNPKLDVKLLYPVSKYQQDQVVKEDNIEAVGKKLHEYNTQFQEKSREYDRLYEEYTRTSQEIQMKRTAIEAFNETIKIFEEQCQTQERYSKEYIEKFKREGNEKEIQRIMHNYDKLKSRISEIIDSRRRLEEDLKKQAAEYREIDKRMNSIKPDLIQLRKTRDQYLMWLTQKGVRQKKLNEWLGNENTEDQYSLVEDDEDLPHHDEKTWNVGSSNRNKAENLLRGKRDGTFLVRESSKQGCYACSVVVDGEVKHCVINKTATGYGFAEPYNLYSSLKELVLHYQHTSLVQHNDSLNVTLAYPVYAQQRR
T1 sequence (P42336 whole entry): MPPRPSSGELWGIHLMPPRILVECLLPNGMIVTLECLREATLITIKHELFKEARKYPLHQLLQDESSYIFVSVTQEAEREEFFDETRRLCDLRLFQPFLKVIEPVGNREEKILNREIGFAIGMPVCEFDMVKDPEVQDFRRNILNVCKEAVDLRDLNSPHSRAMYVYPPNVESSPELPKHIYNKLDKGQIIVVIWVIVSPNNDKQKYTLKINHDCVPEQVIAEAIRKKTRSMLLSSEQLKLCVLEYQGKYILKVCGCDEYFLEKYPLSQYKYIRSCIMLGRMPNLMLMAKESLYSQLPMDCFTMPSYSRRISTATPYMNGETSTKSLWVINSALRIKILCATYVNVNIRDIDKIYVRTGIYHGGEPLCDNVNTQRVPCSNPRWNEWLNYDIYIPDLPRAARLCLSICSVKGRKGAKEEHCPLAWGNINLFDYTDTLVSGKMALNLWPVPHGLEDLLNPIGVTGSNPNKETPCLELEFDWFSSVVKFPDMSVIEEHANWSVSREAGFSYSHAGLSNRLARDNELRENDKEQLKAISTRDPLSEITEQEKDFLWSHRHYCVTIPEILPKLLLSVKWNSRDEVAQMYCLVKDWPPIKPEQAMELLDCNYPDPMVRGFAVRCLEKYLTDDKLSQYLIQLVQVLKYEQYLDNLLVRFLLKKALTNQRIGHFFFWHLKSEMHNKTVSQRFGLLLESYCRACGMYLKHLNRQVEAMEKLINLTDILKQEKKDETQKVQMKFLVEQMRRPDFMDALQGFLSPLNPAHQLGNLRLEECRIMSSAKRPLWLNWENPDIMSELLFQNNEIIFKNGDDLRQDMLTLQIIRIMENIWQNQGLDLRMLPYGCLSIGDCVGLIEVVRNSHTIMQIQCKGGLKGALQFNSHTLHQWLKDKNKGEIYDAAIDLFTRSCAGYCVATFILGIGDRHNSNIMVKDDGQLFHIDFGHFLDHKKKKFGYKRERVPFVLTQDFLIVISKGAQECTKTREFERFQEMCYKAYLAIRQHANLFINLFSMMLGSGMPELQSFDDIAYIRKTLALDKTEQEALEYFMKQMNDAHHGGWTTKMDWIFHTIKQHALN
T1 sequence (P27986 whole entry partner): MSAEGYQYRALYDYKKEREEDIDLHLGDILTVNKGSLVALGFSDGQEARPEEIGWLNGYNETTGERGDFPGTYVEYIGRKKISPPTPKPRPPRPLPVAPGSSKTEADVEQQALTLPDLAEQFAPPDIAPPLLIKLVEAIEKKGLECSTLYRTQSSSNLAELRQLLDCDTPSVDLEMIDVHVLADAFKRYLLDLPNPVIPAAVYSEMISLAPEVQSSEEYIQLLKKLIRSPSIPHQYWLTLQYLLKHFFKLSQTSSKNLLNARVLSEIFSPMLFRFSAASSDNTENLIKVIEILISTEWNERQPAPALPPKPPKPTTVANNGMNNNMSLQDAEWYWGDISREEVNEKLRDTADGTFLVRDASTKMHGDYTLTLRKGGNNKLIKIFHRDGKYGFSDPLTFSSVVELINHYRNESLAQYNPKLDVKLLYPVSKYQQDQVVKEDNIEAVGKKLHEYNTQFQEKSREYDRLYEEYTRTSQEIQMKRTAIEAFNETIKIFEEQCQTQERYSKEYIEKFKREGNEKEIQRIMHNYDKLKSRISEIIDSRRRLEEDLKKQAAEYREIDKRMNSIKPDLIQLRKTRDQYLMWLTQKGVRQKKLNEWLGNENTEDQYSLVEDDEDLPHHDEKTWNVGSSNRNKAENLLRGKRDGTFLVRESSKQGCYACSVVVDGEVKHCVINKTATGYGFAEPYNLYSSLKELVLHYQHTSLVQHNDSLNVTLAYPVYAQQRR

| SMILES | EC50 (Balb/c splenic B cells) | IC50 (PI3Kα) | IC50 (PI3Kβ) |
| --- | --- | --- | --- |
| C[C@H](Nc1ncnc2scnc12)c1cc2cccc(-c3cnn(C)c3)c2c(=O)n1C1CC1 [Compound 9] | < 100 nM | – | – |
| C[C@H](Nc1ncnc2scnc12)c1cc2cccc(-c3cnn(CCN4CCOCC4)c3)c2c(=O)n1-c1ccccc1 [Compound 48] | < 100 nM | 1000 to 10000 nM | – |
| C[C@H](Nc1ccnc2scnc12)c1cc2cccc(-c3cnn(C)c3)c2c(=O)n1-c1ccccc1 [Compound 91] | – | 1000 to 10000 nM | 1000 to 10000 nM |
| C[C@H](Nc1ncnc2scnc12)c1cc2cccc(-c3ccoc3)c2c(=O)n1-c1ccccc1 [Compound 34] | – | – | 1000 to 10000 nM |
| COc1cncc(-c2cccc3cc([C@H](C)Nc4ncnc5scnc45)n(-c4ccccc4)c(=O)c23)c1 [Compound 39] | < 100 nM | – | – |
| COc1ncc(-c2cccc3cc([C@H](C)Nc4ncnc5scnc45)n(-c4cccc(F)c4)c(=O)c23)cn1 [Compound 60] | < 100 nM | 1000 to 10000 nM | – |
| C[C@H](Nc1ncnc2scnc12)c1cc2cccc(-c3ccc(C(F)(F)F)nc3)c2c(=O)n1-c1ccccc1 [Compound 13] | < 100 nM | – | – |
| C[C@H](Nc1ncnc2scnc12)c1cc2cccc(-c3cnc(N)nc3)c2c(=O)n1-c1ccccc1 [Compound 50] | < 100 nM | – | 1000 to 10000 nM |
| C[C@H](Nc1ncnc2scnc12)c1cc2cccc(-c3ccc(F)c(F)c3)c2c(=O)n1-c1ccccc1 [Compound 22] | < 100 nM | 1000 to 10000 nM | – |
| C[C@H](Nc1ncnc2scnc12)c1cc2scc(-c3cnn(C)c3)c2c(=O)n1-c1ccccc1 [Compound 16] | – | 1000 to 10000 nM | – |
| Cc1cncc(-c2cccc3cc([C@H](C)Nc4ncnc5scnc45)n(-c4ccccc4)c(=O)c23)c1 [Compound 20] | – | – | 1000 to 10000 nM |
| C[C@H](Nc1ncnc2scnc12)c1cc2cccc(Cl)c2c(=O)n1-c1cccc(C(F)(F)F)c1 [Compound 73] | – | – | 1000 to 10000 nM |
| C[C@H](Nc1ncnc2scnc12)c1cc2cccc(-c3cccnc3)c2c(=O)n1-c1ccccc1 [Compound 28] | – | 1000 to 10000 nM | 1000 to 10000 nM |
| C[C@H](Nc1ncnc2scnc12)c1cc2cccc(-c3cn[nH]c3)c2c(=O)n1-c1ccccc1 [Compound 26] | – | 1000 to 10000 nM | 1000 to 10000 nM |
| CCCn1cc(-c2cccc3cc([C@H](C)Nc4ncnc5scnc45)n(-c4ccccc4)c(=O)c23)cn1 [Compound 29] | – | 1000 to 10000 nM | 1000 to 10000 nM |
| C[C@H](Nc1ncnc2scnc12)c1cc2cccc(-c3ccc(N)nc3)c2c(=O)n1C1CC1 [Compound 63] | < 100 nM | – | – |
| Cc1cc(-c2cccc3cc([C@H](C)Nc4ncnc5scnc45)n(-c4ccccc4)c(=O)c23)ccn1 [Compound 27] | – | – | 1000 to 10000 nM |
| C[C@H](Nc1ncnc2scnc12)c1cc2cccc(Cl)c2c(=O)n1C1CC1 [Compound 8] | < 100 nM | – | – |
| C[C@H](Nc1ncnc2scnc12)c1cc2cccc(-c3cnc4ccoc4c3)c2c(=O)n1-c1ccccc1 [Compound 55] | < 100 nM | – | 1000 to 10000 nM |
| COc1cc(-c2cccc3cc([C@H](C)Nc4ncnc5scnc45)n(-c4ccccc4)c(=O)c23)ccn1 [Compound 52] | < 100 nM | – | 1000 to 10000 nM |
| Cc1ncc(-c2cccc3cc([C@H](C)Nc4ncnc5scnc45)n(-c4ccccc4)c(=O)c23)cn1 [Compound 37] | – | 1000 to 10000 nM | – |
| C[C@H](Nc1ncnc2scnc12)c1cc2cccc(-c3ccc(N)nc3)c2c(=O)n1-c1ccccc1 [Compound 46] | < 100 nM | – | 1000 to 10000 nM |
| CC(C)n1cc(-c2cccc3cc([C@H](C)Nc4ncnc5scnc45)n(-c4ccccc4)c(=O)c23)cn1 [Compound 23] | – | 1000 to 10000 nM | – |
| Cc1cc(-c2cccc3cc([C@H](C)Nc4ncnc5scnc45)n(-c4ccccc4)c(=O)c23)cnc1F [Compound 30] | – | 1000 to 10000 nM | 1000 to 10000 nM |
| CC(C)Cn1cc(-c2cccc3cc([C@H](C)Nc4ncnc5scnc45)n(-c4ccccc4)c(=O)c23)cn1 [Compound 24] | – | 1000 to 10000 nM | – |
| C[C@H](Nc1ncnc2scnc12)c1cc2cccc(Cl)c2c(=O)n1-c1ccccc1 [Compound 2] | < 100 nM | – | – |

| SMILES | EC50 (Balb/c splenic B cells) | IC50 (PI3Kα) | IC50 (PI3Kβ) |
| --- | --- | --- | --- |
| C[C@H](Nc1nc(Cl)nc2scnc12)c1cc2cccc(-c3cnn(C)c3)c2c(=O)n1-c1ccccc1 [Compound 75] | – | 1000 to 10000 nM | 1000 to 10000 nM |
| C[C@H](Nc1ccnc2scnc12)c1cc2cccc(Cl)c2c(=O)n1-c1cccc(F)c1 [Compound 90] | < 100 nM | 1000 to 10000 nM | – |
| Cc1nn(C)cc1-c1cccc2cc([C@H](C)Nc3ncnc4scnc34)n(-c3ccccc3)c(=O)c12 [Compound 42] | – | – | 1000 to 10000 nM |
| C[C@H](Nc1ncnc2scnc12)c1cc2scc(Cl)c2c(=O)n1-c1ccccc1 [Compound 15] | – | 1000 to 10000 nM | – |
| Cc1cc(-c2cccc3cc([C@H](C)Nc4ncnc5scnc45)n(-c4ccccc4)c(=O)c23)cnc1C [Compound 40] | – | 1000 to 10000 nM | 1000 to 10000 nM |
| C[C@H](Nc1ncnc2scnc12)c1cc2cccc(-c3ccncc3)c2c(=O)n1-c1ccccc1 [Compound 33] | – | – | 1000 to 10000 nM |
| C[C@H](Nc1ncnc2scnc12)c1cc2cccc(-c3ccc(N(C)C)nc3)c2c(=O)n1-c1ccccc1 [Compound 47] | < 100 nM | 1000 to 10000 nM | – |
| C[C@H](Nc1ncnc2scnc12)c1cc2cccc(-c3cncc(F)c3)c2c(=O)n1-c1ccccc1 [Compound 21] | < 100 nM | 1000 to 10000 nM | – |
| C[C@H](Nc1ncnc2scnc12)c1cc2ccccc2c(=O)n1-c1ccccc1 [Compound 71] | – | 1000 to 10000 nM | 1000 to 10000 nM |
| COc1cnccc1-c1cccc2cc([C@H](C)Nc3ncnc4scnc34)n(-c3ccccc3)c(=O)c12 [Compound 36] | – | 1000 to 10000 nM | 1000 to 10000 nM |
| C[C@H](Nc1ncnc2scnc12)c1cc2cccc(-c3cnc4ccccc4c3)c2c(=O)n1-c1ccccc1 [Compound 41] | < 100 nM | – | – |
| COc1cncc(-c2cccc3cc([C@H](C)Nc4ncnc5scnc45)n(C4CC4)c(=O)c23)c1 [Compound 64] | < 100 nM | – | – |
| C[C@H](Nc1ncnc2scnc12)c1cc2cccc(Cl)c2c(=O)n1CCN1CCCC1 [Compound 68] | < 100 nM | – | – |
| C[C@H](Nc1ncnc2scnc12)c1cc2cccc(-c3ccnc(C(F)(F)F)c3)c2c(=O)n1-c1ccccc1 [Compound 17] | – | 1000 to 10000 nM | 1000 to 10000 nM |
| COc1ccc(-c2cccc3cc([C@H](C)Nc4ncnc5scnc45)n(-c4ccccc4)c(=O)c23)cn1 [Compound 18] | – | 1000 to 10000 nM | 1000 to 10000 nM |
| C[C@H](Nc1ncnc2scnc12)c1cc2cccc(-c3cccc(N(C)C)c3)c2c(=O)n1-c1ccccc1 [Compound 45] | < 100 nM | – | 1000 to 10000 nM |
| Cc1ccnc2cc(C(C)Nc3ncnc4scnc34)n(-c3ccccc3)c(=O)c12 (stereo not shown) [Compound 70] | – | – | 1000 to 10000 nM |
| C[C@H](Nc1ncnc2scnc12)c1cc2cccc(-c3cnc4c(c3)CCCO4)c2c(=O)n1-c1ccccc1 [Compound 54] | < 100 nM | – | 1000 to 10000 nM |
| COc1ncc(-c2cccc3cc([C@H](C)Nc4ncnc5scnc45)n(-c4ccccc4)c(=O)c23)s1 [Compound 93] | < 100 nM | – | 1000 to 10000 nM |
| C[C@H](Nc1ncnc2scnc12)c1cc2cccc(-c3cncnc3)c2c(=O)n1-c1ccccc1 [Compound 19] | – | 1000 to 10000 nM | 1000 to 10000 nM |
| CCn1cc(-c2cccc3cc([C@H](C)Nc4ncnc5scnc45)n(-c4ccccc4)c(=O)c23)cn1 [Compound 25] | – | 1000 to 10000 nM | 1000 to 10000 nM |
| COc1cccc(-c2cccc3cc([C@H](C)Nc4ncnc5scnc45)n(-c4ccccc4)c(=O)c23)c1 [Compound 31] | – | – | 1000 to 10000 nM |
| C[C@H](Nc1ncnc2scnc12)c1cc2cccc(-c3ccc(=O)n(C)c3)c2c(=O)n1-c1ccccc1 [Compound 51] | < 100 nM | – | 1000 to 10000 nM |
| COc1ccccc1-c1cccc2cc([C@H](C)Nc3ncnc4scnc34)n(-c3ccccc3)c(=O)c12 [Compound 35] | – | 1000 to 10000 nM | 1000 to 10000 nM |
| C[C@H](Nc1ncnc2scnc12)c1cc2cccc(-c3cnc4nccnc4c3)c2c(=O)n1-c1ccccc1 [Compound 57] | < 100 nM | – | – |
